Where a name gives a salt, the structure may show the parent alone.

The experiment deals with MYB mRNA. In words: Splicing RT-qPCR assay, MYB canonical (CJ) and alternative (AJ) junction mRNA. Conditions: Homo sapiens, A673 or K562 cells, 24 hours; for IC50: decrease in canonical junction mRNA; for AC50: increase in alternative junction mRNA. In kind it is cell-based. Summed up:
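Housekeeping-normalized RT-qPCR of canonical and alternative junctions in lysates of A673 or K562 cells exposed 24 h to compound (11 points, 3-fold steps, max 10 uM).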
For orientation: In qPCR the cycle at which signal appears reflects the starting amount.

A word on the IC50: it is the point on the concentration scale where inhibition reaches its midpoint. As usually defined, the AC50 is the concentration at which the activity in the assay is half-maximal. `Cc1cn2cc(NC(=O)c3ccc(N4CCNCC4)c4ccnnc34)[nH]c(=O)c2n1` [Compound 177, N-{2-methyl-8-oxo-7H-imidazo[1,2-a]pyrazin-6-yl}-5-(piperazin-1-yl)cinnoline-8-carboxamide trifluoroacetic acid salt] yielded an IC50 of 100 to 1000 nM and a half-maximal activity concentration (AC50) of 100 to 1000 nM.
The compound `Cc1nc(NC(=O)c2ccc(N3CCNCC3)c3ccnnc23)cc2cn(C)nc12` [Compound 178, N-{2,7-dimethylpyrazolo[3,4-c]pyridin-5-yl}-5-(piperazin-1-yl)cinnoline-8-carboxamide] had an IC50 of 100 to 1000 nM and an AC50 of 100 to 1000 nM.
`COc1nc(NC(=O)c2ccc(N3CCNCC3)c3ccnnc23)cn2cc(C)nc12` [Compound 179, N-{8-methoxy-2-methylimidazo[1,2-a]pyrazin-6-yl}-5-(piperazin-1-yl)cinnoline-8-carboxamide] came in with an IC50 of under 100 nM and an AC50 of under 100 nM.
Consider `Cc1c(O)c(NC(=O)c2ccc(N3CCNCC3)c3ccnnc23)cc2cn(C)nc12` [Compound 181, N-(6-hydroxy-2,7-dimethylindazol-5-yl)-5-(piperazin-1-yl)cinnoline-8-carboxamide], for which the IC50 was in the range of 100 to 1000 nM and the AC50 fell in the range of 1000 to 10000 nM.
In the same order, the values of `Cc1cn2cc(NC(=O)c3ccc(N4CCNCC4)c4ccnnc34)cc(C(C)O)c2n1` (stereo not drawn) [Compound 182, N-[8-(1-hydroxyethyl)-2-methylimidazo[1,2-a]pyridin-6-yl]-5-(piperazin-1-yl)cinnoline-8-carboxamide trifluoroacetate] are over 10000 nM and over 10000 nM.
In the same order, the values of `COc1cc2c(N3CCNCC3)ccc(C(=O)Nc3cc(F)c4nc(C)cn4c3)c2nn1` [Compound 183, N-{8-fluoro-2-methylimidazo[1,2-a]pyridin-6-yl}-3-methoxy-5-(piperazin-1-yl)cinnoline-8-carboxamide] are under 100 nM and under 100 nM.
The like results for `Cc1cn2cc(NC(=O)c3ccc(N4C[C@@H](C)N[C@@H](C)C4)c4nccnc34)cc(F)c2n1` [Compound 186, 8-(3,5-dimethylpiperazin-1-yl)-N-{8-fluoro-2-methylimidazo[1,2-a]pyridin-6-yl}quinoxaline-5-carboxamide] were, in that order, under 100 nM and under 100 nM.
In the case of `Cc1cn2cc(NC(=O)c3ccc(N4CCN[C@@H](C)C4)c4nccnc34)cc(F)c2n1` [Compound 187, N-{8-fluoro-2-methylimidazo[1,2-a]pyridin-6-yl}-8-(3-methylpiperazin-1-yl) quinoxaline-5-carboxamide], the IC50 is under 100 nM and the half-maximal activity concentration (AC50) is under 100 nM.
For the compound `Cc1cn2cc(NC(=O)c3ccc(N4CCC5(CCN5)CC4)c4nccnc34)cc(F)c2n1` [Compound 189, 8-{1,7-diazaspiro[3.5]nonan-7-yl}-N-{8-fluoro-2-methylimidazo[1,2-a]pyridin-6-yl}quinoxaline-5-carboxamide], the IC50 is under 100 nM and the AC50 lay in the range of 100 to 1000 nM.
The compound `CNC1CCN(c2ccc(C(=O)Nc3cc(F)c4nc(C)cn4c3)c3nccnc23)C1` (stereo not drawn) [Compound 190, N-{8-fluoro-2-methylimidazo[1,2-a]pyridin-6-yl}-8-[3-(methylamino)pyrrolidin-1-yl]quinoxaline-5-carboxamide] gave an IC50 of 100 to 1000 nM and a half-maximal activity concentration (AC50) of under 100 nM.
Compound `CCNC1CCN(c2ccc(C(=O)Nc3cc(F)c4nc(C)cn4c3)c3nccnc23)CC1` [Compound 191, 8-[4-(ethylamino)piperidin-1-yl]-N-{8-fluoro-2-methylimidazo[1,2-a]pyridin-6-yl}quinoxaline-5-carboxamide] registered an IC50 of under 100 nM and an AC50 of 100 to 1000 nM.
Compound `CNCC1CCN(c2ccc(C(=O)Nc3cc(F)c4nc(C)cn4c3)c3nccnc23)CC1` [Compound 192, N-{8-fluoro-2-methylimidazo[1,2-a]pyridin-6-yl}-8-{4-[(methylamino)methyl]piperidin-1-yl}quinoxaline-5-carboxamide trifluoroacetate] gave an IC50 of 1000 to 10000 nM and an AC50 of 1000 to 10000 nM.
Consider `CNC1CCN(c2ccc(C(=O)Nc3cc(F)c4nc(C)cn4c3)c3nc(C)ccc23)C1` (stereo not drawn) [Compound 196, N-{8-fluoro-2-methylimidazo[1,2-a]pyridin-6-yl}-2-methyl-5-[3-(methylamino)pyrrolidin-1-yl]quinoline-8-carboxamide 2,2,2-trifluoroacetate], for which the IC50 is 100 to 1000 nM and the AC50 was in the range of 100 to 1000 nM.
On to `Cc1cnc2c(N3CCNCC3)ccc(C(=O)Nc3cc(F)c4nc(C)cn4c3)c2n1` [Compound 197, N-{8-fluoro-2-methylimidazo[1,2-a]pyridin-6-yl}-3-methyl-8-(piperazin-1-yl)quinoxaline-5-carboxamide; trifluoroacetic acid], for which the IC50 was 100 to 1000 nM and the AC50 was in the range of 100 to 1000 nM.
The compound `COCCOc1cc2c(N3CCNCC3)ccc(C(=O)Nc3cc(F)c4nc(C)cn4c3)c2nn1` [Compound 199, N-{8-fluoro-2-methylimidazo[1,2-a]pyridin-6-yl}-3-(2-methoxyethoxy)-5-(piperazin-1-yl)cinnoline-8-carboxamide] had an IC50 of 100 to 1000 nM and an AC50 of under 100 nM.
`Cc1cnc2c(N3CCC(N(C)C)CC3)ccc(C(=O)Nc3cc(F)c4nc(C)cn4c3)c2n1` [Compound 200, 8-[4-(dimethylamino)piperidin-1-yl]-N-{8-fluoro-2-methylimidazo[1,2-a]pyridin-6-yl}-3-methylquinoxaline-5-carboxamide] yielded an IC50 of under 100 nM and an AC50 of under 100 nM.
Consider `CNC1CCN(c2ccc(C(=O)Nc3cc(F)c4nc(C)cn4c3)c3nc(OC)cnc23)C1` (stereo not drawn) [Compound 202, N-{8-fluoro-2-methylimidazo[1,2-a]pyridin-6-yl}-3-methoxy-8-[3-(methylamino)pyrrolidin-1-yl]quinoxaline-5-carboxamide; bis(trifluoroacetic acid)], for which the AC50 was 100 to 1000 nM.
Compound `CN[C@@H]1CCN(c2ccc(C(=O)Nc3cc(F)c4nc(C)cn4c3)c3nc(OC)cnc23)C1` [Compound 204, (R)—N-{8-fluoro-2-methylimidazo[1,2-a]pyridin-6-yl}-3-methoxy-8-[3-(methylamino)pyrrolidin-1-yl]quinoxaline-5-carboxamide; trifluoroacetic acid] returned an IC50 of 1000 to 10000 nM and an AC50 of over 10000 nM.
In the same order, the values of `COc1cnc2c(N3C[C@@H](C)N[C@@H](C)C3)ccc(C(=O)Nc3cc(F)c4nc(C)cn4c3)c2n1` [Compound 205, 8-[(3R,5S)-3,5-dimethylpiperazin-1-yl]-N-{8-fluoro-2-methylimidazo[1,2-a]pyridin-6-yl}-3-methoxyquinoxaline-5-carboxamide; trifluoroacetic acid] are under 100 nM and under 100 nM.
Compound `COc1cnc2c(N3CCC(N(C)C)CC3)ccc(C(=O)Nc3cc(F)c4nc(C)cn4c3)c2n1` [Compound 206, 8-[4-(dimethylamino)piperidin-1-yl]-N-{8-fluoro-2-methylimidazo[1,2-a]pyridin-6-yl}-3-methoxyquinoxaline-5-carboxamide; trifluoroacetic acid] registered an IC50 of 100 to 1000 nM and an AC50 of 100 to 1000 nM.
